Earlier results on four compounds are cited in EP2637636B1, “LEAVE-ON NONSOLID SKIN CONDITIONING COMPOSITIONS CONTAINING 12-HYDROXYSTEARIC ACID” (Unilever PLC, priority 2010, dated 2012).

Some results are limits rather than exact numbers.

For this data set the following is noted: surfactants used in the Examples.
For Hexadecyl n-methyl glucamide, the HLB was > 7.
For the compound `CCCCCCCCCCCCNC(=O)[C@H](O)[C@@H](O)[C@H](O[C@@H]1O[C@H](CO)[C@H](O)[C@H](O)[C@H]1O)[C@H](O)CO` [C12 lactobionamide], the HLB is recorded as > 7.
With Glyceryl hydroxystearate, the HLB result is “about 5”.
For Sorbitan Monostearate [Span 60], the HLB is listed as 4.7.
